# In patent US20210025895A1, “CANCER SERUM BIOMARKERS AND METHODS OF USE THEREOF” (X4 Pharmaceuticals, Inc., priority 2018, published 2021):
# “And” between values parts separate entries of the source, which are not always exact repeats. Identical values can stand only once.
# Legend:
# [1] = system: melanoma, renal cell carcinoma, and ovarian cancer; conditions: murine models; cited from earlier work
# [2] = system: pancreatic adenocarcinoma; conditions: cited from earlier work
# [3] = system: unresectable or metastatic melanoma; conditions: Phase 3 trial, P<0.001; cited from earlier work
# [4] = system: advanced clear-cell renal-cell carcinoma; conditions: cited from earlier work; for objective response rate: Phase 3, nivolumab 3 mg/kg iv every two weeks vs everolimus 10 mg orally daily, P<0.001
# [5] = system: CXCL10; assay: Serum CXCL10 in melanoma patients, Multi-Analyte Profile Platform (Myriad RBM); assay type: in vivo, human; conditions: individual melanoma patients
# Method: (§1) Subjects were first screened and evaluated for baseline measurements.
# (§2) Prior to treatment two (2) baseline serum samples were collected from each patient.
# (§3) Three (3) weeks after treatment was initiated, additional serum samples were collected from each patient. Additional biopsy samples were also collected unless the attending physician recommended against the biopsy. Following sample collection, subjects were administered the first of two doses of pembrolizumab (2 mg/kg, i.v.).
# (§4) Three (3) weeks after the administration of the first dose of pembrolizumab (six weeks from beginning of treatment) additional serum samples were collected from each patient. Subjects then administered a second dose of pemrolizumab (2 mg/kg, i.v.).
# (§5) Three (3) weeks after the administration of the second dose of pembrolizumab (nine weeks from the beginning of treatment) additional serum samples were collected. Additional biopsy samples were also collected unless the attending physician recommended against the biopsy.
# (§6) Five (5) additional patients were evaluated. Baselines in Tables 1 and 2 represent measurements taken on Day 1. Baselines in Tables 1a and 2a represent an average of two measurements taken at screening and on Day 1.
# [6] = system: advanced or metastatic melanoma; assay: Tumor sample / tumor microenvironment biomarkers in solid tumors such as melanoma; assay type: in vivo, human
# Method: A primary comparison is the density of specific cell phenotypes in the tumor microenvironment in the pre-treatment biopsy vs. the Week 4 and EOT biopsies. CD8^+ T cells/mm^−2 are measured in melanoma tumor parenchyma prior to treatment.
# [7] = system: serum cytokines and chemokines; assay: Serum chemokines, cytokines and growth factors in melanoma patients, change vs baseline; assay type: in vivo, human
# Method: as §1, §2, §3, §6
# [8] = Solubility of X4P-001; assay type: physicochemical
# [9] = Phase 1 and 2a trials; cited from earlier work
# [10] = in vivo; conditions: terminal half-life (T1/2)
# [11] = system: CXCL9; assay: Serum CXCL9 in melanoma patients, Multi-Analyte Profile Platform (Myriad RBM); assay type: in vivo, human; conditions: individual melanoma patients
# Method: as §1, §2, §3, §4, §5, §6
# [12] = solid tumors, e.g. advanced or metastatic melanoma
compound,measurement,setting,value
"c1cc(CN2CCCNCCNCCCNCC2)ccc1CN1CCCNCCNCCCNCC1 [plerixafor, Plerixafor]","anti-tumor activity, including decreased metastasis and increased overall survival",[1],significant anti-tumor activity
same,tumor growth,[2]; in combination with anti-PD-L1,synergistically decreased tumor growth
same,T-cell accumulation among cancer cells,[2]; murine pancreatic adenocarcinoma,induced rapid T-cell accumulation among the cancer cells
pembrolizumab: humanized IgG4 kappa monoclonal antibody that blocks the interaction between PD-1 and its ligands,objective response rate,[3],33%
ipilimumab: anti-CTLA-4 antibody,objective response rate,[3],12%
nivolumab: fully human IgG4 monoclonal antibody binding to the PD-1 receptor,objective response rate,[4],25%
same,incidence of Grade 3 or 4 treatment-related adverse events,[4]; vs everolimus,lower incidence of Grade 3 or 4 treatment-related adverse events
same,median overall survival,[4]; vs everolimus,longer median overall survival
CO[C@H]1C[C@@H]2CC[C@@H](C)[C@@](O)(O2)C(=O)C(=O)N2CCCC[C@H]2C(=O)O[C@H]([C@H](C)C[C@@H]2CC[C@@H](OCCO)[C@H](OC)C2)CC(=O)[C@H](C)/C=C(\C)[C@@H](O)[C@@H](OC)C(=O)[C@H](C)C[C@H](C)/C=C/C=C/C=C/1C [everolimus],objective response rate,[4],5%
NCCCCN(Cc1nc2ccccc2[nH]1)[C@H]1CCCc2cccnc21 [X4P-001],"Patient Serum CXCL10 Levels, Post-X4P-001 Monotherapy","[5]; Table 2, three weeks single agent therapy",767 pg/mL and 146 pg/mL and 262 pg/mL and 101 pg/mL and 123 pg/mL and 384 pg/mL and 118 pg/mL and 174 pg/mL and 139 pg/mL and 331 pg/mL and 521 pg/mL
same,"Patient Serum CXCL10 Levels, Post-X4P-001 Monotherapy","[5]; Table 2a (updated data, 16 patients)",767 pg/mL and 146 pg/mL (2×) and 262 pg/mL and 101 pg/mL and 123 pg/mL and 384 pg/mL and 118 pg/mL and 174 pg/mL and 272 pg/mL and 166 pg/mL and 350 pg/mL and 139 pg/mL and 331 pg/mL and 521 pg/mL
same,levels of Treg cells,[6]; [12],without significantly increasing levels of Treg cells
same,levels of macrophages in the tumor,[6]; [12],without significantly modulating levels of macrophages in the tumor
same,numbers of CD8+ T cells and/or CD4+ T cells in tumors,[6]; [12],increases observed numbers of CD8^+ T cells and/or CD4^+ T cells
same,IFN-γ gene signature,[6]; tumor,increases one or more of a panel of IFN-γ related genes
same,PD-L1 expression,[6]; tumor samples and tumor microenvironment,increases PD-L1 expression in tumor samples and the tumor microenvironment
same,CTL signature gene expression,[6]; tumor samples or tumor microenvironment,increases gene expression of one or more of a panel of cytotoxic T cell (CTL)-related genes
same,"anti-tumor activity, including decreased metastasis and increased overall survival",[1],significant anti-tumor activity
same,serum CXCL9 and CXCL10 levels,"[7]; following monotherapy, melanoma patients",generally increase following monotherapy
same,levels of serum CXCL9 and CXCL10,"[7]; patients with solid tumors, e.g. advanced or metastatic melanoma",increases levels of serum CXCL9 and CXCL10
same,levels of serum cytokine panel,[7]; serum,modulates levels of one or more of a panel of serum cytokines
same,solubility,"[8]; aqueous buffer, pH range 3.0 to 8.0 (freely soluble)",> 100 mg/mL
same,solubility in water,[8]; water,only slightly soluble
same,"pharmacodynamic activity, circulating white blood cells (WBCs)",[9],dose- and concentration-related changes in circulating white blood cells
same,volume of distribution (VL),[9],high volume of distribution
same,half-life,[10],720 to 1440 min
same,"Patient Serum CXCL9 Levels, Post-X4P-001 Monotherapy","[11]; Table 1, three weeks single agent therapy",836 pg/mL and 2260 pg/mL and 2530 pg/mL and 843 pg/mL and 2020 pg/mL and 1020 pg/mL and 1410 pg/mL and 766 pg/mL and 794 pg/mL and 1380 pg/mL and 425 pg/mL
same,"Patient Serum CXCL9 Levels, Post-X4P-001 Monotherapy","[11]; Table 1a (updated data, 16 patients)",836 pg/mL and 2260 pg/mL and 2530 pg/mL and 843 pg/mL and 2020 pg/mL and 1020 pg/mL and 1410 pg/mL and 766 pg/mL and 1245 pg/mL and 769.5 pg/mL and 460.5 pg/mL and 1030 pg/mL and 1750 pg/mL and 794 pg/mL and 1380 pg/mL and 425 pg/mL
